Test results reported in article PMC11217338 (Frontiers in Endocrinology, 2024).

Molecular target: T1, rat PXR (rPXR) (Rattus norvegicus, UniProt Q9R1A7)
T1 construct: gene Nr1i2
T1 sequence (Q9R1A7 143-431 limits assumed): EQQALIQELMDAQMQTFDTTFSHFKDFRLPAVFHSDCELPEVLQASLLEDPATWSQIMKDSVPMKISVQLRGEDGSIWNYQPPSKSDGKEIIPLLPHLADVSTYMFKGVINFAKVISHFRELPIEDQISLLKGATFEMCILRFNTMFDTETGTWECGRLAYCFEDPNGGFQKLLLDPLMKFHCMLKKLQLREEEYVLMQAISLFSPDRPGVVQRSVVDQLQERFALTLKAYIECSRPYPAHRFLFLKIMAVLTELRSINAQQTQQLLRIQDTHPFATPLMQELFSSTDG
Assay: GAL4-LBD luciferase reporter assay in HepG2 cells, […] CBD
Format: cell-based

`C=C(C)[C@@H]1CCC(C)=C[C@H]1c1c(O)cc(CCCCC)cc1O` [CBD, Cannabidiol] was tested, and the “GAL4-LBD luciferase reporter assay in HepG2 cells, 10 μM CBD” value was “Except for PXRs, CBD had little effect on activation of the other tested nuclear receptors”.
